Data set [1] deals with NZO mice fed a high fat diet. The data set can be described thus: Implantation rate and resorption, comparison of macrolides. The format is in vivo, mouse. How it is done:
For the comparative evaluation of other macrolide drugs to tacrolimus, mice starting at 7 weeks of age were maintained on the high fat diet for a total of 13 weeks of study period. Mice were entered into the experiments when determined to be glucose intolerant as described above. Methods of drug administration and other experimental methods were as described above.
Peri-implantation (E4.5) and post-implantation (E6.5) pregnant and/or pseudopregnant (E4.5bid and E6.5bid) mouse uteri were prepared after mating respectively with fertile and/or vasectomized males as previously described (Herington et al. Endocrinol 2009 150: 4404-4413). The morning of vaginal plug detection was considered as gestational day 0.5 (E0.5 or Gd.0.5). An average number of twenty Concanavalin A(ConA)-coated sepharose beads (average size of 0.1 mm-diameter) (Sigma-Aldrich, Burlington, Ontario, Canada) was injected into the lumen of the left uterine horn of anesthetized animals between hours 13:00 and 16:00 on day 2.5 of pseudopregnancy according to the procedure described by Herington et al. (Endocrinol, 2009 150: 4404-4413). With the use of Ketamine/Xyalzine anesthesia and cardiac puncture, all animals were sacrificed at the age of 16-18 weeks between the morning hours 09:00-11:00. Pregnant and pseudopregnant mice were sacrificed in the morning of days 4.5 and 6.5 of their respective pregnancy. Blood samples were collected from all animals and were let stand for 1 hour at room temperature before isolation of the serum. Serum samples were stored at −80° C. until they were analyzed for their steroid hormones and lipid contents by appropriate laboratory procedures such as radio-immunoassay (RIA) all of which were conducted at the Department of Clinical Chemistry (Kingston General Hospital, Kingston, Ontario, Canada). Ovaries, oviducts and uteri were carefully dissected out of carcasses and were placed in ice-cold phosphate buffered saline (PBS)-containing petri dishes. Under a dissecting microscope, uteri were carefully isolated from their attached uterine tubes, trimmed of all mesenteric fat and were immediately weighed. The numbers of corpora lutea and implantation sites (viable and resorbed) were counted, respectively, from E4.5 and E6.5 pregnant mouse ovaries and uteri. For protein and RNA extraction, virgin uteri and segments of uterine horns containing inter-implantation sites of pregnant and pseudopregnant uteri were transected and snapped frozen in liquid nitrogen.
Examination of external morphological features of uteri of pregnant mice, including counts of implantation sites and photography was performed using a computerized dissecting microscope (Leica Diagnostic Instruments, USA) and the image acquisition and analytic software (SPOT 2.2.0). Percentage of peri-implantation embryo loss was calculated as described by Bindali and Kaliwal (Ind. Health, 2002 40:191-197), using the formula: % Preimplantation loss=[Total number of corpora lutea−Total number of implantation]/Total number of corpora lutea. Immunohistochemical localization and assessment of microscopic morphological features of implantation and inter-implantation sites in normoglycemic and diabetic NOD mice were performed on methacarn (60% methanol, 30% chloroform and 10% acetic acid)-fixed specimens. […]

The subject of data set [2] is NOD mice. The following applies: NOD mice at younger age, model for Type 1 diabetes; cited from earlier work.
Data set [3] has as its system diabetic and prediabetic mice. The data set can be described thus: Body weight in diabetic and prediabetic NOD mice. The format is in vivo, mouse. The note with it: throughout the study period; FIG. 19A. The method, then:
Fifty four NOD mice at the prediabetic and early diabetic stages were carefully selected to match the criteria of being 2 standard deviation heavier in body weight than their age-matched normoglycemic control mice and having blood glucose value of >14.9 mM/1 during the glucose tolerance test. The selected mice were 9 weeks old and were treated with 0.1 mg/kg q2d of tacrolimus (Prograf (5 mg/ml), Astellas) subcutaneously administered in 0.2 ml saline for three weeks after which animals were mated to males of the same strain (See FIG. 1). Vehicle (0.2 ml saline, s.q.) treated hyperglycemic NOD female mice were allowed two weeks in diabetes before they were mated to males of the same strain. Facial (mandibular) venous blood samples were collected from treated animals at 24 and 48 hours between injections and at pregnancy days 0.5, 2.5, 4.5, 6.5, 8.5, 10.5, 12.5, 14.5, 16.5 and 18.5 respectively following a standard procedure for facial bleed in mice (Golde et al Lab Anim (NY) 2005 34:39-43).

The nature of data set [4]: Likely blood concentration from the dose regimen described herein (extrapolated). The format is in vivo, mouse. The following applies: four-fold lower than the rat value. How it is done:
The smallest currently available tacrolimus dose is a 0.5 mg capsule and a single oral dose of 0.5 mg tacrolimus results in a maximal blood concentration in humans of 4.6 ng/ml (Mathew et al. Clinical Therapeutics. 2011 33(9):1105-1119). This represents over a seven-fold difference based upon the efficacious blood concentration of tacrolimus in experiments disclosed herein. A dose of 0.1 mg/kg in rats represents does of 0.2 mg/kg in mice, based upon a rat Km=6. This is a four-fold higher dose (0.2 mg/kg) than used in experiments disclosed herein. Therefore, the likely blood concentration from the dose regimen described herein would be four-fold lower (i.e. 0.15 ng/ml blood concentration) and represents an even greater exposure difference (28-fold to 38-fold) compared to existing tacrolimus dose forms for humans. Thus, experiments disclosed herein indicate that a substantially lower dose of macrolide agent such as tacrolimus than routinely administered to date may be useful in the methods of the present invention. By “substantially lower dose” or “low dose therapy” for purposes of the present invention, it is meant a dose of macrolide agent at least 2-fold lower, more preferably at least 4-fold lower, more preferably at least 10-fold lower, than the recommended starting doses of tacrolimus (Prograf) when administered for kidney and liver transplant or heart transplant.

The conditions of data set [5]: rats, subcutaneous 0.1 mg/kg every other day (q2d); cited from earlier work.

`C=CC[C@@H]1/C=C(\C)C[C@H](C)C[C@H](OC)[C@H]2O[C@@](O)(C(=O)C(=O)N3CCCC[C@H]3C(=O)O[C@H](/C(C)=C/[C@@H]3CC[C@@H](O)[C@H](OC)C3)[C@H](C)[C@@H](O)CC1=O)[C@H](C)C[C@@H]2OC` [tacrolimus]: in data set [1] (NZO mice, high fat diet), the “fertility-enhancing effect compared with the other macrolides” value is “greater comparative effects”. In data set [1] (same treatments, vs vehicle, p<0.05), the “embryonic and fetal absorption rate” value was “significantly reduced embryonic and fetal absorption rate”. The implantation rate result in data set [1] (tacrolimus 0.05 and 0.1 mg/kg, pimecrolimus 0.1 mg/kg, sirolimus 0.1 mg/kg s.c. every other day for three weeks, vs vehicle) was “significantly improved implantation rate (p<0.05)”. The “suppression of overt diabetes, share of treated NOD mice” value in data set [2] is 84%. The body weight gain entry in data set [3] is listed as “maintained normal body weight gain”. The likely blood concentration in data set [4] is 0.15 ng/mL. Moreover, in data set [5], the maximal blood concentration was 0.6 nanograms/ml.

The values above are taken from patent US9427433B2, “Methods and compositions for enhancing fertility and/or inhibiting pregnancy failure and restoring glucose tolerance” (Queen's University at Kingston, priority 2011, dated 2016).
